Measured values as given in paper PMC13183915, “A platinum butterfly effect: small changes turn an anticancer drug into a non-toxic metalloantibiotic with in vivo efficacy” (npj Antimicrobials and Resistance, 2026).
“And” between values parts separate entries of the source, which are not always exact repeats. Equal values may be shown once.

Assays:
Bacillus subtilis MW168 = assay: MIC assay, B. subtilis MW168; type: cell-based; conditions: B. subtilis MW168
E. coli (NCTC 13476) = assay: MIC, E. coli NCTC 13476 (with or without PMBN); type: cell-based; conditions: E. coli NCTC 13476 + 10 µg/mL PMBN (polymyxin B nonapeptide)
MSSA ATCC 29213 = assay: Broth microdilution MIC, MSSA ATCC 29213; type: cell-based, S. aureus
Method: (§1) The data is given in supporting information (Table S5). Before starting the experiment, a single colony was picked from MHA plate, inoculated in MHBII and incubated overnight at 37 °C with shaking for 18–24 h to get the starter culture. Antibiotic susceptibility testing was conducted according to the CLSI (Clinical & Laboratory Standards Institute) guidelines using the broth microdilution assay. 10 mg/mL stock solutions of test compounds were prepared in DMSO. Bacterial cultures were inoculated in MHBII and optical density (OD) was measured at 600 nm, followed by dilution to achieve ~10^6 CFU/mL. The compounds were tested from 64 to 0.5 mg/L in two-fold serial diluted fashion with 2.5 μL of each concentration added to well of a 96-well round bottom microtiter plate. Later, 97.5 μL of bacterial suspension was added to each well containing either test compound or appropriate controls. […] The MIC is defined as the lowest concentration of the compound at which there is absence of visible growth. For each test compound, MIC determinations were carried out independently three times using duplicate samples.

MRSA NRS 119 = assay: Broth microdilution MIC, MRSA NRS 119; type: cell-based, S. aureus; conditions: MRSA NRS 119
Method: as §1

MRSA NRS 129 = assay: Broth microdilution MIC, MRSA NRS 129; type: cell-based, S. aureus; conditions: MRSA NRS 129
Method: as §1

MRSA NRS 186 = assay: Broth microdilution MIC, MRSA NRS 186; type: cell-based, S. aureus; conditions: MRSA NRS 186
Method: as §1

MRSA NRS 192 = assay: Broth microdilution MIC, MRSA NRS 192; type: cell-based, S. aureus; conditions: MRSA NRS 192
Method: as §1

MRSA NRS 198 = assay: Broth microdilution MIC, MRSA NRS 198; type: cell-based, S. aureus; conditions: MRSA NRS 198
Method: as §1

K. pneumoniae BAA 1705 = assay: Broth microdilution MIC, K. pneumoniae BAA 1705; type: cell-based, Klebsiella pneumoniae
Method: as §1

B. subtilis 168CA = assay: Optimal stressor concentration, acute shock growth curves; type: cell-based, Bacillus subtilis; conditions: after compound addition
Method: To establish a starting concentration for the OSC assay, MICs against parent strain 168CA were determined under conditions equivalent to those used for mode of action assays. […] MICs were used as basis for OSC determination. To this end, growth curves were recorded using optical density (OD) measurements. Culture volumes of 20 mL were grown until reaching an OD600 of 0.3. Subsequently, the parent culture was split into 2 ml aliquots, followed by addition of different MIC multiples of Pt compounds[71]. An untreated culture served as control. Growth was followed until cultures reached the stationary phase. A concentration achieving 50–70% growth inhibition in exponential phase was selected as optimal stressor concentration. […] As controls, 0.23 µM nisin, 0.53 µM µM gramicidin, 100 µM CCCP, 0.67 µM vancomycin, 1.2 µM rifampicin, and 323.12 µM chloramphenicol were included as controls for specific assays as appropriate.

[1] = tested on: RecA-GFP (B. subtilis UG10); assay: Localization of RecA-GFP (DNA damage reporter); type: cell-based, Bacillus subtilis; conditions: Pt1 3.125 µM, Pt8 25 µM, CisPt 100 µM; strongest after 10 min
Method: To confirm whether the compounds induce DNA damage in bacterial cells, the localization of RecA was assessed. RecA is part of the bacterial SOS response to DNA damage. It is a DNA-associated protein that recognizes single-stranded DNA, which occurs as a consequence of strand breaks. If strand breaks are present, RecA accumulates at the damaged sites, appearing as foci or elongated structures. Since the RecA response is strongest shortly after stress induction, we additionally examined a 10 min timepoint in this assay.
(§2) B. subtilis strains were grown in LB containing appropriate inducer concentrations as specified in Table S10. After reaching an OD600 of 0.3, cultures were split and treated with antibiotics. Samples were withdrawn after 30 and 60 min of treatment, spotted on glass slides covered with 1% agarose films, and immediately imaged.

[2] = tested on: RpoC-GFP (B. subtilis 1048); assay: Localization of RpoC-GFP (transcription reporter); type: cell-based, Bacillus subtilis; conditions: 3.12 µM Pt1, 25 µM Pt8; 30 and 60 min
Method: as §2
Figure S9: Localization of RpoC-GFP (B. subtilis 1048). Cultures were treated with 3.12 µM
(§3) (1 picture or pasted object on this page, not shown here)

[3] = tested on: RpsB-GFP (B. subtilis 1049); assay: Localization of RpsB-GFP (translation reporter); type: cell-based, Bacillus subtilis; conditions: 3.12 µM Pt1, 25 µM Pt8; 30 and 60 min
Method: as §2
Figure S10: Localization of RpsB-GFP (B. subtilis 1049). Cultures were treated with 3.12 µM
as §3

[4] = tested on: 36th Passage S.aureus ATCC 29213 in the presence of Pt-1; assay: microbe, parasite or virus in culture; type: cell-based; conditions: strain resulting from 36 passages
Method: The MICs of the passaged cultures were determined every 3 days and compared to that of wild type S. aureus ATCC 29213. MIC changes were recorded for 36 passages.

S. aureus ATCC 29213 = assay: Murine superficial skin infection model; type: in vivo; conditions: topical 2% cream, twice daily for 4 days, Swiss mice
Method: The in vivo efficacy of Pt1 was determined in a superficial skin infection model. Briefly, male Swiss mice, 4–6 weeks old, weighing ∼22–25 g, were used throughout the study. Mice were caged alone in an individually vented cage (IVC) to check cross-contamination and to maintain aseptic conditions throughout the experiment. Ketamine and xylazine were prepared in distilled water, 40 mg/kg and 8 mg/kg of body weight, respectively, and injected intraperitoneally (IP) as a mixture of 100 μL in each mouse for anaesthesia. Then, we proceeded with the removal of fur by applying depilatory cream. The area was cleaned with sterile distilled water. Approximately 2 cm^2 of skin area was scratched until it became visibly reddened and glistening without any bleeding. For bacterial infection, a 10 μL droplet containing 10^7 CFU/mL of S. aureus ATCC 29213 was applied to the reddened area of skin. To confirm the infection, post 4 h, untreated mice were sacrificed, skin homogenized, and various dilutions of the treatment groups (6 mice per group) were plated on TSA plates. […] Henceforth, the drug regimen was comprised of twice daily application (in the morning and the evening, with an 8 h interval) for 4 days. Control mice were regularly treated with 25–30 mg each of 2% fusidic acid (LEO Pharma, Ballerup, Denmark), 2% infuzide, and base (vehicle). […]

E. coli tolC = tested on: E. coli tolC; parameters: method as in PMID 34018686; conditions: efflux-impaired mutant; cited from earlier work
[5] = parameters: method as in PMID 34018686; conditions: cited from earlier work

C1=C\CC/C=C\CC/1.[Cl][Pt][Cl] [Pt1]
MIC (Bacillus subtilis MW168): 6.25 µM | MIC (E. coli (NCTC 13476)): > 100 µM | MIC (MSSA ATCC 29213; MSSA ATCC 29213): 0.67 µM | MIC (MSSA ATCC 29213; MSSA ATCC 29213, Table S5): 0.25 µg/mL | MIC (MSSA ATCC 29213; S.aureus ATCC 29213 (unpassaged), Table S9): 0.0625 µg/mL | MIC (MRSA NRS 119): 0.125 – 0.25 µg/mL and 0.33–0.67 µM | MIC (MRSA NRS 129): 0.125 – 0.25 µg/mL and 0.33–0.67 µM | MIC (MRSA NRS 186): 0.125 – 0.25 µg/mL and 0.33–0.67 µM | MIC (MRSA NRS 192): 0.125 – 0.25 µg/mL and 0.33–0.67 µM | MIC (MRSA NRS 198): 0.25 µg/mL and 0.67 µM | MIC (K. pneumoniae BAA 1705): > 64 µg/mL | delay until the onset of growth inhibition (B. subtilis 168CA): ~ 30 min | RecA accumulation on nucleoids [1]: clear RecA accumulations | localization of RpoC [2]: Neither protein showed a distinct phenotype | localization of RpsB [3]: Neither protein showed a distinct phenotype | cross-resistance to other antibiotics [4]: no cross-resistance was observed | reduction in bacterial load compared to vehicle-treated group (S. aureus ATCC 29213): ~ 1.9 log10 CFU/g | antibacterial activity (E. coli tolC): inactive | antibacterial activity in human serum [5]: lost its antibacterial activity completely
